Measurements published in patent US10335417B2, “Thiazideamide derivative and use thereof” (Institute of Pharmacology and Toxicology Academy of …, priority 2015, dated 2019).

What was measured:
[1] = tested on: MDCK-MDR1 cells; experiment: in vitro; details: MDCK-MDR1
Source text: (§1) MDCK-MDR1 cells were monolayer cells which highly express P-gp transporter after transfection of MDCK (Madin-Darby canine kidney epithelial cell) with MDR1 gene. Due to its density and high expression of efflux protein, the monolayer has similarity compared to blood-brain barrier (BBB) structure and now can be used as one of models for evaluating the ability of passing through BBB. In the invention, MDCK-MDR1 cells were used to study the membrane permeability of the compounds according to the invention, and to primarily evaluate its ability of passing through BBB.
(§2) The frozen MDCK-MDR1 cells were quickly thawed in a 37° C. water bath. To the resuscitated cells, DMEM medium containing 10% FBS was added, and the cells were cultured in an incubator at 37° C., 5% CO2, and a relative humidity of 90%. The medium was changed every other day. After fusion of the cells growing for 1-2 days, the cells were digested with 0.25% trypsin-EDTA (0.2%) mixed digestion solution at 37° C., and were sub-cultured at a certain ratio. The cells for use in experiment were those passaged for 40-60 generations.
(§3) When the cell fusion degree reached 80%, the cells were digested and then suspended in complete medium, and seeded to Millicell plate at 1×10^6 cells·mL^−1. The medium was changed every other day, and 1 week later, the medium was changed every day. After culturing for 5 days, the resistance value reached a constant value (>200 Ω·cm^2), and the cells could be used in the transport experiment.
(§4) After washing with 37° C. HBSS twice, the cells were incubated in a 37° C. culture incubator, wherein Rho-123 was added to the upper wells, and HBSS was added to the bottom wells. The incubation was carried out in a constant temperature shaker, and the solutions from the bottom wells were collected at each time point (0 min, 30 min, 90 min, 120 min), and stored at −20° C. for further use. The amount of Rho-123 permeated to the bottom well was determined by fluorospectrophotometer, wherein the emission wavelength was […], and the excitation wavelength was 530 nm.
(§5) The permeability from cavity-surface to basal surface: drug-containing HBSS 0.35 mL was add to Apical (AP), and blank HBSS 1.2 mL was added to Basolateral (BL). The Millicell was placed at 37° C. in a shaker under shaking at 50 r·min^−1, 50 μL sample was collected from the bottom well at 0, 30, 90, 120 min, respectively, and the same volume of blank HBSS was supplemented. 3 wells were set for each concentration, and to the sample, an internal standard solution (50 μL) and ethyl acetate (350 μL) were added precisely. The mixture was mixed homogeneously under shaking, and centrifuged at 12000 rmp for 5 min. The supernatant (300 μL) was volatilized to dryness, and re-dissolved in 50 μL acetonitrile. The 10 μL resultant solution was used for determination.
(§6) The permeability from basal surface to cavity surface: the drug is added to Basolateral (BL), and blank HBSS was added to Apical (AP), and the other steps were the same as those of the experiment for determining the permeability from cavity-surface to basal surface.
(§7) The apparent permeability coefficient (Papp) of a drug reflects the ability of the drug to pass through cell monolayer and the drug absorption rate and extent. It can be calculated in accordance with the following equation: […]
(§8) wherein, Q represents the amount of drug permeated in the t period, A represents cell surface area, and represents the area (0.6 cm^2) of supporting film in this model, and C0 represents an initial concentration. The unit of Papp is expressed as cm·s^−1.
(§9) By measurement using LC/MS, the concentration of each sample was quantitated using its standard curve (50 nM-10000 nM).

[2] = tested on: chick embryo dorsal root ganglion; experiment: in vitro serum-free culture model of chick embryonic dorsal root ganglion: neurite growth score with NGF; assay type: cell-based; details: for Average score (growth of neurites of chick embryo dorsal root ganglion): 48 h, score 0-3, average of five ganglions, control 0.33
Protocol: The neurotrophic activity of the compounds according to the invention can be embodied in multiple in vitro biological models, such as in vitro serum-free culture model of chick embryonic dorsal root ganglion.
Experimental method: in a sterile environment, chick embryo, which had been incubated for 8 d, had the spinal and bilateral ganglion exposed under anatomical lens. Dorsal root ganglions were picked one by one using sharp forceps, and seeded in culture bottles spread with rat tail collagen, at a density of 5-6 ganglions per bottle, and two bottles for each dose. After attachment culture in a 37° C., 5% CO2 incubator for 1 h, serum-free medium DMEM containing nerve growth factor (NGF) (0.15 ng/mL), and the compound according to the invention were added. In the control group, only the medium and the same dose of NGF were added. After culture in the incubator for 48 h, the growth of neurite around dorsal root ganglion was observed under inverted phase contrast microscope, which was scored depending on the length and density of neurite.
Evaluation criteria: 0: no neurite; 1: rare long neurite; 2: relatively long or dense neurite; 3: long and dense neurite.

[3] = tested on: BCAO-LBP mice (incomplete global cerebral ischemia); experiment: mouse BCAO-LBP model of incomplete global cerebral ischemia: cerebral MDA content and neurological function score; assay type: in vivo, Kunmin mice; details: for Neurologic deficit score / MDA content: 30 mg/kg i.g. once/d for 3 d, x ± SEM; for Neurologic deficit score: behaviour within 6 h after ligation, model group 3.92, sham 0.00; for MDA content: whole cerebrum, model group 40.94, sham 33.15
Source text: In the Example, Kunmin mice were used as experimental subjects, intragastric (i.g.) administration was used, mouse BCAO-LBP (bilateral carotid artery occlusion with low blood pressure) model was used, and by determining neurological function score and the cerebral malondialdehyde (MDA) content in mice, the compounds were investigated for their protective effects on incomplete global cerebral ischemia in mice when administered prophylactically.
2.1.2 Preparation of a drug for intragastric administration: the compound was prepared to a 1.5 mg/ml solution using 0.7% CMC-Na solution.
28 mice, which had adapted to the laboratory environment for 1 week, were evenly grouped depending on body weight. The mice were intragastrically administered with 0.7% CMC-Na or one of the compounds, once/d, for 3 d. The groups were as followed:
Administration group: 12 mice, intragastrically administered at a dose of 0.2 ml/10 g, i.e., the dose of the compound was 30 mg/kg.
2.3.1 Mouse bilateral carotid artery ligation: 1 h after the last administration, the mice were subjected to orbital bloodletting to reduce blood pressure (which was about 30% of the total blood volume of the mice), and then fixed in supine position on the operating table, and cut in the middle of neck. Carotid artery was subjected to blunt dissection, and 2 lines were used in ligation for each side. The time counting started after the ligation with the third line, the carotid artery was cut off between the two lines, and the incision was sewn up. In the Sham-operated group, the carotid artery was only separated without ligation. After the operation, the mice were unfixed quickly, and the mice were observed and recorded for the behaviors within 6 h (scoring depending on the following table using blind method) and the death time. The brains were taken quickly after the mice died, the cerebellums were removed, and the MDA content in the whole cerebrum was determined by thiobarbituric acid (TBA).
The cerebra of mice were taken and weighed, and were prepared into 15% brain homogenate using N.S. 1.2 ml brain homogenate was placed in a 37° C. water bath for 1 h (shaking once every 10 min) and then taken out. 20% trichloroacetic acid 0.6 ml was added, and the mixture was mixed well, and was on standing for 10 min. After centrifugation at 2000 rpm for 10 min, to 1.2 ml supernatant, 0.67% TBA 0.6 ml was added. The mixture was placed in a boiling water bath for 10 min, and was taken out for cooling, and the OD value at a wavelength of 532 nm was determined.
The experimental data was expressed as x±SEM; SPSS 13.0 statistic software was used. Homogeneity or heterogeneity of variance was determined by one-factor analysis of variance. In the case of homogeneity of variance, LSD test was used; in the case of heterogeneity of variance, Dunnett's T3 test was used. Significant difference among different groups was compared, and P<0.05 indicated statistical significance.

[4] = in vitro; details: dog, MDCK-MDR1
Source text: as §1, §2, §3, §4, §5, §6, §7, §8, §9

[5] = compound 100 pM + NGF 0.15 ng/mL

SMILES | Papp (apparent permeability coefficient) [1] [×10⁻⁶ cm/s] | Average score (growth of neurites of chick embryo dorsal root ganglion) ([2]; compound 1 pM + NGF 0.15 ng/mL) | Average score (growth of neurites of chick embryo dorsal root ganglion) [2, 5] | Neurologic deficit score [3] | MDA content [3] [nmol/g] | Papp at 120 min [4] [×10⁻⁶ cm/s] | neurologic deficit score decreased compared to the group administered with Compound 5 ([3]; 30 mg/kg i.g., BCAO-LBP mice) | neurologic deficit score decreased compared to the group administered with Compound 6 ([3]; 30 mg/kg i.g., BCAO-LBP mice) [%] | neurotrophic activity increased compared to Compound 6 ([2]; dose 1 pM) [%] | neurotrophic activity increased compared to Compound 6 ([2]; dose 100 pM) [%]
CCOC(=O)[C@H](CC(C)C)NC(=O)[C@@H]1CSCCN1S(=O)(=O)c1ccc(C)cc1 [Compound 5, (3R)-4-[(4-methylbenzenesulfonyl)]-1,4-thiazin-3-carbonyl-L-leucine ethyl ester, reference compound] | 8.38 | 0.65 | 1.55 | 3.62 ± 0.31 | 36.09 ± 1.85 |  |  |  |  | 
Cc1ccc(S(=O)(=O)N2CCSC[C@H]2C(=O)N[C@H](CC(C)C)C(=O)OC(C)C)cc1 [Compound 6, (3R)-4-[(4-methylbenzenesulfonyl)]-1,4-thiazin-3-carbonyl-D-leucine isopropyl ester, reference compound] | 39.5 | 1.68 | 2.55 | 2.08 ± 0.40 | 32.87 ± 0.95 |  |  |  |  | 
CCC(C)[C@H](NC(=O)[C@@H]1CSCCN1S(=O)(=O)c1ccc(C)cc1)C(=O)OC(C)(C)C (stereo partly drawn) [Compound 9, (2S,3R)-tert-butyl-3-methyl-2((R)-(4-methylphenyl)sulfonyltetrahydro-1,4-thiazin-3-aminoformyl)valerate] |  | 1.76 | 2.56 | 2.37 ± 0.31 | 33.29 ± 1.81 | 12.4 | about 35% |  |  | 
Cc1ccc(S(=O)(=O)N2CCSC[C@H]2C(=O)N[C@H](C(=O)OCc2ccccc2)C(C)C)cc1 [Compound 11, (S)-benzyl-3-methyl-2((R)-(4-methylphenyl)sulfonyltetrahydro-1,4-thiazin-3-aminoformyl)butyrate] |  | 1.86 | 2.65 | 3.66 ± 0.31 | 32.57 ± 0.75 | 15.6 |  |  |  | 
CCOC(=O)[C@@H](NC(=O)[C@@H]1CSCCN1S(=O)(=O)c1ccc(C)cc1)C(C)C [Compound 13, (S)-ethyl-3-methyl-2((R)-(4-methylphenyl)sulfonyltetrahydro-1,4-thiazin-3-aminoformyl)butyrate] |  | 1.96 | 2.88 | 2.47 ± 0.40 | 33.90 ± 1.45 | 18.9 | ~32% |  |  | 
Cc1ccc(S(=O)(=O)N2CCSC[C@H]2C(=O)N[C@@H](C(=O)OC(C)(C)C)C(C)C)cc1 [Compound 15, (R)-tert-butyl-3-methyl-2((R)-(4-methylphenyl)sulfonyltetrahydro-1,4-thiazin-3-aminoformyl)butyrate] |  | 1.78 | 2.68 | 1.91 ± 0.28 | 33.77 ± 1.61 | 40.8 |  | ~8 |  | 
Cc1ccc(S(=O)(=O)N2CCSC[C@H]2C(=O)N[C@@H](Cc2ccccc2)C(=O)OCc2ccccc2)cc1 [Compound 18, (S)-benzyl-3-phenyl-2((R)-(4-methylphenyl)sulfonyltetrahydro-1,4-thiazin-3-aminoformyl)propionate] |  | 1.66 | 2.68 | 2.65 ± 0.31 | 32.66 ± 0.93 | 28.5 | ~27% |  |  | 
Cc1ccc(S(=O)(=O)N2CCSC[C@H]2C(=O)N[C@H](Cc2ccccc2)C(=O)OC(C)(C)C)cc1 [Compound 20, (R)-tert-butyl-3-phenyl-2((R)-(4-methylphenyl)sulfonyltetrahydro-1,4-thiazin-3-aminoformyl)propionate] |  | 2.10 | 3.32 | 3.76 ± 0.31 | 34.90 ± 1.65 | 18.8 |  |  | 25 | 30
CCOC(=O)[C@H](CCc1ccccc1)NC(=O)[C@@H]1CSCCN1S(=O)(=O)c1ccc(C)cc1 [Compound 22, (S)-ethyl-4-phenyl-2((R)-(4-methylphenyl)sulfonyltetrahydro-1,4-thiazin-3-aminoformyl)butyrate] |  | 1.88 | 2.78 | 3.08 ± 0.40 | 33.27 ± 1.61 | 40.6 | about 15% |  |  | 
